# Assay results taken from PubChem BioAssay (NCI).
#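 Grown in 96-well plates, cells were treated for 48 hours with each compound at five concentrations. Insufficient inhibition: endpoint recorded as highest concentration tested. GI50 marks 50% less growth. TGI: concentration producing complete growth inhibition.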
# Assays:
# Assay in all cases: inhibition of tumour cell growth, NCI panel, 48 h
# MALME-3M melanoma = system: MALME-3M melanoma
# K-562 leukemia = system: K-562 leukemia
# HCC-2998 colon = system: HCC-2998 colon
# SR leukemia = system: SR leukemia
# SK-MEL-28 melanoma = system: SK-MEL-28 melanoma
# CAKI-1 renal = system: CAKI-1 renal
# HL-60(TB) leukemia = system: HL-60(TB) leukemia
# OVCAR-5 ovarian = system: OVCAR-5 ovarian
# UACC-62 melanoma = system: UACC-62 melanoma
# M14 melanoma = system: M14 melanoma
structure (smiles),measurement,setting,value
C=CCn1c(=O)c(C(=O)Nc2nc(C34CC5CC(CC(C5)C3)C4)cs2)c(O)c2ccccc21,TGI,MALME-3M melanoma,> 100 µM
same,TGI,K-562 leukemia,> 100 µM
same,TGI,HCC-2998 colon,> 100 µM
same,TGI,SR leukemia,> 100 µM
same,TGI,SK-MEL-28 melanoma,> 100 µM
same,TGI,CAKI-1 renal,> 100 µM
same,TGI,HL-60(TB) leukemia,65.6 µM
same,TGI,OVCAR-5 ovarian,> 100 µM
O=C(/C=C/c1ccccc1)Oc1ccc(C(=O)/C=C/c2ccccc2)cc1,TGI,UACC-62 melanoma,17.7 µM
same,TGI,M14 melanoma,23.3 µM
same,TGI,K-562 leukemia,> 29.8 µM
same,TGI,HCC-2998 colon,15.3 µM
same,TGI,SR leukemia,6.82 µM
same,TGI,SK-MEL-28 melanoma,21.3 µM
same,TGI,CAKI-1 renal,19.8 µM
same,TGI,HL-60(TB) leukemia,8.2 µM
same,TGI,OVCAR-5 ovarian,21.4 µM
Cc1nn(-c2ccccc2)c2c1C(c1cc3ccccc3nc1Cl)NC(=O)N2 (stereo not drawn),TGI,UACC-62 melanoma,42.5 µM
same,TGI,M14 melanoma,42.4 µM
same,TGI,MALME-3M melanoma,51.8 µM
same,TGI,K-562 leukemia,> 100 µM
same,TGI,SR leukemia,> 100 µM
same,TGI,CAKI-1 renal,> 100 µM
same,TGI,HL-60(TB) leukemia,52.6 µM
same,TGI,OVCAR-5 ovarian,43.8 µM
Cc1nc(C)c(N2CCN([N+](=O)[O-])CC2)c(=O)[nH]1,TGI,UACC-62 melanoma,> 100 µM
same,TGI,M14 melanoma,> 100 µM
same,TGI,MALME-3M melanoma,> 100 µM
same,TGI,K-562 leukemia,> 100 µM
same,TGI,HCC-2998 colon,> 100 µM
same,TGI,SR leukemia,> 100 µM
same,TGI,SK-MEL-28 melanoma,> 100 µM
same,TGI,CAKI-1 renal,> 100 µM
same,TGI,HL-60(TB) leukemia,> 100 µM
NC(=O)c1c(NC(=O)c2ccccc2)sc2c1CCC(=O)C2,GI50,UACC-62 melanoma,0.723 µM
same,TGI,UACC-62 melanoma,2.51 µM
same,GI50,MALME-3M melanoma,2.14 µM
same,TGI,MALME-3M melanoma,5.53 µM
same,GI50,K-562 leukemia,0.402 µM
same,TGI,K-562 leukemia,> 100 µM
same,GI50,HCC-2998 colon,2.1 µM
same,TGI,HCC-2998 colon,11 µM
same,GI50,SK-MEL-28 melanoma,2.88 µM
same,TGI,SK-MEL-28 melanoma,19.2 µM
same,GI50,CAKI-1 renal,0.637 µM
same,TGI,CAKI-1 renal,3.95 µM
same,GI50,HL-60(TB) leukemia,0.378 µM
same,TGI,HL-60(TB) leukemia,3.57 µM
same,GI50,OVCAR-5 ovarian,1.77 µM
same,TGI,OVCAR-5 ovarian,11 µM
O=C(CCn1ccnc1[N+](=O)[O-])NCCCn1ccnc1[N+](=O)[O-],TGI,UACC-62 melanoma,> 100 µM
same,TGI,M14 melanoma,> 100 µM
same,TGI,MALME-3M melanoma,> 100 µM
same,TGI,K-562 leukemia,> 100 µM
same,TGI,SR leukemia,> 100 µM
same,TGI,SK-MEL-28 melanoma,> 100 µM
same,TGI,CAKI-1 renal,> 100 µM
same,TGI,HL-60(TB) leukemia,> 100 µM
same,TGI,OVCAR-5 ovarian,> 100 µM
C[N+](C)([O-])CCOc1cc2c(c3ccccc13)-c1ccccc1C2=O,TGI,UACC-62 melanoma,30.2 µM
same,TGI,MALME-3M melanoma,28.9 µM
same,TGI,K-562 leukemia,> 95.2 µM
same,TGI,HCC-2998 colon,29.2 µM
same,TGI,SK-MEL-28 melanoma,39.1 µM
same,TGI,CAKI-1 renal,61.9 µM
same,TGI,HL-60(TB) leukemia,35.5 µM
same,TGI,OVCAR-5 ovarian,59.2 µM
CCCCCC#CCOC(=O)C(=[N+]=[N-])P(=O)(c1ccccc1)c1ccccc1,TGI,UACC-62 melanoma,> 10 µM
same,TGI,M14 melanoma,> 10 µM
same,TGI,MALME-3M melanoma,> 10 µM
same,TGI,K-562 leukemia,> 10 µM
same,TGI,HCC-2998 colon,> 10 µM
same,TGI,SR leukemia,> 10 µM
same,TGI,SK-MEL-28 melanoma,> 10 µM
same,TGI,HL-60(TB) leukemia,> 10 µM
same,TGI,OVCAR-5 ovarian,> 10 µM
O=C1OCC/C1=N/O,TGI,UACC-62 melanoma,> 100 µM
same,TGI,M14 melanoma,> 100 µM
same,TGI,MALME-3M melanoma,> 100 µM
same,TGI,K-562 leukemia,> 100 µM
same,TGI,HCC-2998 colon,> 100 µM
same,TGI,SR leukemia,> 100 µM
same,TGI,SK-MEL-28 melanoma,> 100 µM
same,TGI,HL-60(TB) leukemia,> 100 µM
same,TGI,OVCAR-5 ovarian,> 100 µM
Cc1c(O)nc(-n2[nH]c3c(c2=O)CCCC3)[nH]c1=O,TGI,UACC-62 melanoma,> 100 µM
same,TGI,M14 melanoma,> 100 µM
same,TGI,MALME-3M melanoma,> 100 µM
same,TGI,K-562 leukemia,> 100 µM
same,TGI,SR leukemia,> 100 µM
same,TGI,SK-MEL-28 melanoma,> 100 µM
same,TGI,CAKI-1 renal,> 100 µM
same,TGI,HL-60(TB) leukemia,> 100 µM
same,TGI,OVCAR-5 ovarian,> 100 µM
CCCNc1ncnc2c1ncn2C,TGI,UACC-62 melanoma,> 100 µM
same,TGI,M14 melanoma,> 100 µM
same,TGI,MALME-3M melanoma,> 100 µM
same,TGI,K-562 leukemia,> 100 µM
same,TGI,HCC-2998 colon,> 100 µM
same,TGI,SK-MEL-28 melanoma,> 100 µM
same,TGI,CAKI-1 renal,> 100 µM
same,TGI,HL-60(TB) leukemia,96.3 µM
CCOc1cc(/C=C2/C(C)=NN(c3cccc(Cl)c3)/C2=N/c2nc3ccccc3s2)ccc1O,TGI,M14 melanoma,75.5 µM
same,TGI,K-562 leukemia,> 100 µM
same,TGI,HCC-2998 colon,35.6 µM
same,TGI,SR leukemia,81.1 µM
same,TGI,SK-MEL-28 melanoma,> 100 µM
same,TGI,HL-60(TB) leukemia,12.4 µM
same,TGI,OVCAR-5 ovarian,> 100 µM
O=P(O)(O)C(N=C(Nc1ccccc1)Nc1ccccc1)P(=O)(O)O,TGI,UACC-62 melanoma,> 100 µM
same,TGI,M14 melanoma,> 100 µM
same,TGI,MALME-3M melanoma,> 100 µM
same,TGI,HCC-2998 colon,> 100 µM
same,TGI,CAKI-1 renal,> 100 µM
same,TGI,OVCAR-5 ovarian,> 100 µM
COC(=O)C(Cc1ccc2c(c1)CCC2)Cc1ccc2c(c1)CCC2,TGI,UACC-62 melanoma,> 100 µM
same,TGI,M14 melanoma,> 100 µM
same,TGI,K-562 leukemia,> 100 µM
same,TGI,SR leukemia,> 100 µM
same,TGI,SK-MEL-28 melanoma,> 100 µM
same,TGI,HL-60(TB) leukemia,88.8 µM
same,TGI,OVCAR-5 ovarian,> 100 µM
CSC1=N/C(=C\c2ccc(C)cc2)C(=O)N1CN1CCCCC1,TGI,UACC-62 melanoma,> 100 µM
same,TGI,M14 melanoma,> 100 µM
same,TGI,MALME-3M melanoma,> 100 µM
same,TGI,K-562 leukemia,> 100 µM
same,TGI,SR leukemia,> 100 µM
same,TGI,SK-MEL-28 melanoma,> 100 µM
same,TGI,OVCAR-5 ovarian,> 100 µM
CC(=NNC(=S)Nc1ccccc1)c1cccc(C(C)=NNC(=S)Nc2ccccc2)n1,TGI,UACC-62 melanoma,26.7 µM
same,TGI,M14 melanoma,21.2 µM
same,TGI,MALME-3M melanoma,52.5 µM
same,TGI,K-562 leukemia,> 53.5 µM
same,TGI,HCC-2998 colon,> 100 µM
same,TGI,SK-MEL-28 melanoma,> 100 µM
same,TGI,CAKI-1 renal,> 22.9 µM
same,TGI,HL-60(TB) leukemia,> 20.6 µM
same,TGI,OVCAR-5 ovarian,> 100 µM
CCOC(=O)C1S/C(=N\C(=N)N[N+](=O)[O-])N=C1C (stereo not drawn),TGI,MALME-3M melanoma,> 100 µM
same,TGI,K-562 leukemia,> 100 µM
same,TGI,HCC-2998 colon,> 100 µM
same,TGI,SR leukemia,> 100 µM
same,TGI,SK-MEL-28 melanoma,> 100 µM
same,TGI,HL-60(TB) leukemia,> 100 µM
same,TGI,OVCAR-5 ovarian,> 100 µM
COC(C)(C)C1(O)CC[C@@H](C)CC1=O (stereo partly drawn),TGI,UACC-62 melanoma,> 100 µM
same,TGI,M14 melanoma,> 100 µM
same,TGI,MALME-3M melanoma,> 100 µM
same,TGI,HCC-2998 colon,> 100 µM
same,TGI,SR leukemia,> 100 µM
same,TGI,SK-MEL-28 melanoma,> 100 µM
same,TGI,CAKI-1 renal,> 100 µM
same,TGI,HL-60(TB) leukemia,> 100 µM
same,TGI,OVCAR-5 ovarian,> 100 µM
O=C1C=C/C(=N\N=C(c2ccccc2)c2ccccc2)O1,TGI,UACC-62 melanoma,> 10 µM
same,TGI,M14 melanoma,> 10 µM
same,TGI,MALME-3M melanoma,> 10 µM
same,TGI,K-562 leukemia,> 10 µM
same,TGI,HCC-2998 colon,> 10 µM
same,TGI,SR leukemia,> 10 µM
same,TGI,SK-MEL-28 melanoma,> 10 µM
same,TGI,CAKI-1 renal,> 10 µM
same,TGI,HL-60(TB) leukemia,> 10 µM
COc1cc(OC)cc(C(=O)CC(=O)c2cc(OC)cc(OC)c2)c1,TGI,UACC-62 melanoma,> 100 µM
same,TGI,M14 melanoma,> 100 µM
same,TGI,MALME-3M melanoma,> 100 µM
same,TGI,K-562 leukemia,> 100 µM
same,TGI,HCC-2998 colon,> 100 µM
same,TGI,SR leukemia,> 100 µM
same,TGI,SK-MEL-28 melanoma,> 100 µM
same,TGI,HL-60(TB) leukemia,> 100 µM
same,TGI,OVCAR-5 ovarian,> 100 µM
COc1ccc(C2OC(c3ccncc3)=NN2C)cc1F (stereo not drawn),TGI,UACC-62 melanoma,> 100 µM
same,TGI,M14 melanoma,> 100 µM
same,TGI,MALME-3M melanoma,> 100 µM
same,TGI,K-562 leukemia,> 100 µM
same,TGI,HCC-2998 colon,> 100 µM
same,TGI,SK-MEL-28 melanoma,> 100 µM
same,TGI,CAKI-1 renal,> 100 µM
same,TGI,HL-60(TB) leukemia,> 100 µM
same,TGI,OVCAR-5 ovarian,> 100 µM
COc1ccc(C(=O)/C=C/c2ccc(OCCCOc3ccc(/C=C/C(=O)c4ccc(OC)cc4)cc3)cc2)cc1,TGI,UACC-62 melanoma,> 100 µM
same,TGI,M14 melanoma,> 100 µM
same,TGI,K-562 leukemia,> 100 µM
same,TGI,HCC-2998 colon,> 100 µM
same,TGI,SR leukemia,> 100 µM
same,TGI,SK-MEL-28 melanoma,> 100 µM
same,TGI,CAKI-1 renal,> 100 µM
same,TGI,HL-60(TB) leukemia,> 100 µM
same,TGI,OVCAR-5 ovarian,> 100 µM
O=C(O)CN1CCN2CCCCCN(CC1)CCN(CC(=O)O)CC2,TGI,UACC-62 melanoma,> 100 µM
same,TGI,M14 melanoma,> 100 µM
same,TGI,MALME-3M melanoma,> 100 µM
same,TGI,K-562 leukemia,> 100 µM
same,TGI,SR leukemia,> 100 µM
same,TGI,SK-MEL-28 melanoma,> 100 µM
same,TGI,CAKI-1 renal,> 100 µM
same,TGI,HL-60(TB) leukemia,33.4 µM
same,TGI,OVCAR-5 ovarian,> 100 µM
CCOC(=O)c1c(-c2ccc(O)c(OC)c2)c(C#N)c(=S)n(C2OC(CO)C(O)C(O)C2O)c1-c1ccccc1 (stereo not drawn),TGI,UACC-62 melanoma,> 100 µM
same,TGI,M14 melanoma,> 100 µM
same,TGI,K-562 leukemia,> 100 µM
same,TGI,HCC-2998 colon,> 100 µM
same,TGI,SR leukemia,> 100 µM
same,TGI,SK-MEL-28 melanoma,> 100 µM
same,TGI,CAKI-1 renal,> 100 µM
same,TGI,HL-60(TB) leukemia,> 100 µM
same,TGI,OVCAR-5 ovarian,> 100 µM
